Read-outs that look alike come from different tables or passages of the source.
What was measured:
RT-112 cells = experiment: Cell proliferation, 5-day CellTiter-Glo; assay type: cell-based; conditions: Homo sapiens, 120 h; RT-112, 5 days; read-out: 5-Day CTG EC50
[1] = Exposure in mice bearing SNU-16 xenografts; conditions: mouse, in vivo, PO QD 2-15 mg/kg, 24-hour period following the last dose
KATO-III cells = experiment: Cell proliferation, 5-day CellTiter-Glo; assay type: cell-based; conditions: Homo sapiens, 120 h, 5 days, read-out: 5-Day CTG EC50
[2] = Exposure in mice bearing RT-112 xenografts; conditions: mouse, in vivo, PO QD 2-15 mg/kg, 24-hour period following the last dose
Method: (§1) Three animals in the 15 mg/kg cohort lost >10% of their body weight during the course of treatment but recovered by end of study.

panel of 321 kinases = experiment: Kinome selectivity screen by mobility shift assay (whole panel); conditions: 1 μM
[3] = Tolerability / body weight in RT-112 xenograft mice; assay type: in vivo; conditions: RT-112 model
Method: as §1

[4] = system: endogenous FGFR in five human tumor cell lines; conditions: read-out: EC50 values, inhibition of endogenous FGFR
[5] = Tolerability / body weight in SNU-16 xenograft mice; assay type: in vivo; conditions: SNU-16 model, all tested doses and schedules; lack of significant body weight changes
Description: […]. Treatment was initiated when tumor volumes were approximately 200-250 mm^3 (actual mean TV for all groups was 262 mm^3).

LOK (AKA STK10) = LOK (AKA STK10) (Homo sapiens, UniProt O94804); experiment: Kinome selectivity screen by mobility shift assay (321 kinases); conditions: read-out: % Inhibition 1 μM
LOK (AKA STK10), sequence (O94804 whole entry): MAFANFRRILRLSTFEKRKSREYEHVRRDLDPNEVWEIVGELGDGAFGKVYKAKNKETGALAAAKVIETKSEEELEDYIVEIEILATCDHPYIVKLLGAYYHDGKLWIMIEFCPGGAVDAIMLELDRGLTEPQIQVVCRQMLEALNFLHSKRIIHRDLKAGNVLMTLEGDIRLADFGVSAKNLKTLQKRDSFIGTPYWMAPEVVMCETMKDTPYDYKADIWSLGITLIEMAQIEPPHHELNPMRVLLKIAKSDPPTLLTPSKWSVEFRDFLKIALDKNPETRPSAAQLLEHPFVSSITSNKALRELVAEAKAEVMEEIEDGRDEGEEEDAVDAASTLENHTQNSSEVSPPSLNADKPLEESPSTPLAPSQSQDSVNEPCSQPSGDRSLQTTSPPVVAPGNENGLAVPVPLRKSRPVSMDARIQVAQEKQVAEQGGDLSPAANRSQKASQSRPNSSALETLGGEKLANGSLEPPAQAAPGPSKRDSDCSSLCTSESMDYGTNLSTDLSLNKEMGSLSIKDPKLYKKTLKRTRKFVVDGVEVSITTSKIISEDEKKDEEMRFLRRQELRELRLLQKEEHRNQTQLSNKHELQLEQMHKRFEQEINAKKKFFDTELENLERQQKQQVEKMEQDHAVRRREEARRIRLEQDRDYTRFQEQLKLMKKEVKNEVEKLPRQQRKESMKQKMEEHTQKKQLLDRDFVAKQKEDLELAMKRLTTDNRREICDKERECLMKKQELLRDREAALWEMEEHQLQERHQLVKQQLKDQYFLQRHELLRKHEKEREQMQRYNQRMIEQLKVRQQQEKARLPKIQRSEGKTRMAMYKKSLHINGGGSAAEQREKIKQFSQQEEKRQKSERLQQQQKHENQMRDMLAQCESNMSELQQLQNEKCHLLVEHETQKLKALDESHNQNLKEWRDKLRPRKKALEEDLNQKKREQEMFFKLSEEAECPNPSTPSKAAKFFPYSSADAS

SW-780 cells = experiment: Cell proliferation, 5-day CellTiter-Glo; assay type: cell-based; conditions: Homo sapiens, SW780, 120 h; SW-780, 5 days; read-out: 5-Day CTG EC50
RT-4 cells = experiment: Cell proliferation, 5-day CellTiter-Glo; assay type: cell-based; conditions: Homo sapiens, 120 h; RT-4, 5 days; read-out: 5-Day CTG EC50
SNU-16 cells = experiment: Cell proliferation, 5-day CellTiter-Glo; assay type: cell-based; conditions: Homo sapiens, 120 h; SNU-16, 5 days; read-out: 5-Day CTG EC50
[6] = system: human SNU-16 gastric cancer xenograft (FGFR2 gene amplification); conditions: for ΔT/ΔC / Final TV: 21 days; for Final TV: mean ± SEM
Description: (§2) Groups and treatments were started when the mean tumor volume reached approximately 200-250 mm^3. Mice were assigned to respective groups based on their starting tumor volume and body weight such that the average values for both parameters were balanced for each treatment group.

[7] = system: human RT-112 urinary bladder transitional cell carcinoma xenograft (FGFR3-TACC3 fusion); conditions: for ΔT/ΔC / Final TV: 21 days; for Final TV: mean ± SEM
Description: as §2

TNK1 = molecular target: T1, TNK1 (Homo sapiens, UniProt Q13470); experiment: Kinome selectivity screen by mobility shift assay (321 kinases); conditions: read-out: % Inhibition 1 μM
T1 sequence (Q13470 1-666): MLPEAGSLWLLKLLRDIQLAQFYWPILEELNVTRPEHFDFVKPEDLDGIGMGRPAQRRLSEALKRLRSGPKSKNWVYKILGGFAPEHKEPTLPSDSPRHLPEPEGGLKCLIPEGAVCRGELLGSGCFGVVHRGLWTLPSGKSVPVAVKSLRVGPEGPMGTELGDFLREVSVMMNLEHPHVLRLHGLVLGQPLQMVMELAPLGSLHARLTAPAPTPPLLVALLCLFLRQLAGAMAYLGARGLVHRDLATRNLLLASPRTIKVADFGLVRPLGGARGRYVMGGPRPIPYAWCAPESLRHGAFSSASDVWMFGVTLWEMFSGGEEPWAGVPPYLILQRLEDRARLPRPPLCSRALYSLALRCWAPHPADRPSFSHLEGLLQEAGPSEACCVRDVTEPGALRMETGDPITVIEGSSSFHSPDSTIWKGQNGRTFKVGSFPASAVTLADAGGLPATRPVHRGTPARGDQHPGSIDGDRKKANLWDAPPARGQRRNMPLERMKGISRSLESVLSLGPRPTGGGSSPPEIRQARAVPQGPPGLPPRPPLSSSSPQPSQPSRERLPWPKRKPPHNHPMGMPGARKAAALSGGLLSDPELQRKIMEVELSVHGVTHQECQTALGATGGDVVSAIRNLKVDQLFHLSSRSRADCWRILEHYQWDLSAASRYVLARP

Q: For `C=CC(=O)N1C[C@@H](n2nc(C#Cc3c(F)cc4c(ncn4C4CC4)c3F)c(C(N)=O)c2NC)C[C@@H]1COC` [Compound 1, 1-((3S,5R)-1-acryloyl-5-(methoxymethyl)pyrrolidin-3-yl)-3-((1-cyclopropyl-4,6-difluoro-1H-benzo[d]imidazol-5-yl)ethynyl)-5-(methylamino)-1H-pyrazole-4-carboxamide], which EC50 (RT-112 cells) is on record?
A: The EC50 was 4.14 nM.

Q: And the AUC(0-t) [1]?
A: The AUC(0-t) was 1090 to 9760 ng·h/mL.

Q: And the EC50 (KATO-III cells)?
A: The EC50 was 5.19 nM.

Q: And the AUC(0-t) [2]?
A: The AUC(0-t) was 1320 to 9760 ng·h/mL.

Q: What about the “number of non-FGFR kinases with >40% inhibition” value (panel of 321 kinases) of the same molecule?
A: The value was 2.

Q: And the average weight loss ([3]; 15 mg/kg QD)?
A: The average weight loss was 5.4%.

Q: What about the “animals that lost >10% of their body weight during treatment (recovered by end of study)” value ([3]; 15 mg/kg cohort (9 animals)) of the same molecule?
A: The value was “Three”.

Q: And the tolerability ([3]; all of the tested doses (2, 5, 15 mg/kg QD))?
A: The tolerability was “well tolerated”.

Q: What about the EC50 [4] of the same molecule?
A: The EC50 was 1 to 6 nM.

Q: And the tolerability [5]?
A: Its tolerability is “well tolerated”.

Q: What about the inhibition at 1 µM (LOK (AKA STK10)) of the same molecule?
A: Its inhibition at 1 µM is 64.6%.

Q: What about the EC50 (SW-780 cells) of the same molecule?
A: Its EC50 is 4.14 nM.

Q: And the EC50 (RT-4 cells)?
A: Its EC50 is 5.96 nM.

Q: What about the EC50 (SNU-16 cells) of the same molecule?
A: Its EC50 is 3.89 nM.

Q: What about the ΔT/ΔC ([6]; SNU-16, 2 mg/kg QD PO) of the same molecule?
A: Its ΔT/ΔC is 31%.

Q: What about the “Final TV” value ([6]; SNU-16, 2 mg/kg QD PO) of the same molecule?
A: The value was 497 ± 22 mm^3.

Q: What about the ΔT/ΔC ([6]; SNU-16, 5 mg/kg QD PO) of the same molecule?
A: Its ΔT/ΔC is 19%.

Q: What about the “Final TV” value ([6]; SNU-16, 5 mg/kg QD PO) of the same molecule?
A: The value was 410 ± 20 mm^3.

Q: What about the ΔT/ΔC ([6]; SNU-16, 15 mg/kg QD PO) of the same molecule?
A: Its ΔT/ΔC is 7%.

Q: What about the “Final TV” value ([6]; SNU-16, 15 mg/kg QD PO) of the same molecule?
A: Its value is 313 ± 13 mm^3.

Q: What about the “animals with tumor regression” value ([6]; SNU-16, 15 mg/kg QD cohort) of the same molecule?
A: Its value is “one”.

Q: What about the ΔT/ΔC ([7]; RT-112, 2 mg/kg QD PO) of the same molecule?
A: Its ΔT/ΔC is 20%.

Q: What about the “Final TV” value ([7]; RT-112, 2 mg/kg QD PO) of the same molecule?
A: The value was 446 ± 49 mm^3.

Q: And the “animals exhibiting tumor regression” value ([7]; RT-112, 5 mg/kg QD)?
A: The value was 4 of 9.

Q: What about the ΔT/ΔC ([7]; RT-112, 5 mg/kg QD PO) of the same molecule?
A: The ΔT/ΔC was 9%.

Q: And the “Final TV” value ([7]; RT-112, 5 mg/kg QD PO)?
A: Its value is 343 ± 57 mm^3.

Q: What about the “animals exhibiting tumor regression” value ([7]; RT-112, 15 mg/kg QD) of the same molecule?
A: Its value is 4 of 9.

Q: What about the ΔT/ΔC ([7]; RT-112, 15 mg/kg QD PO) of the same molecule?
A: The ΔT/ΔC was 1%.

Q: And the “Final TV” value ([7]; RT-112, 15 mg/kg QD PO)?
A: Its value is 274 ± 48 mm^3.

Q: What about the inhibition at 1 µM (TNK1) of the same molecule?
A: Its inhibition at 1 µM is 89.5%.

Reference: patent US20250032458A1, “TREATMENT OF CANCER WITH AN FGFR KINASE INHIBITOR” (Kinnate Biopharma Inc., priority 2021, published 2025)
